Measurements as given in patent US20240208969A1, “SUBSTITUTED FUSED BICYCLIC COMPOUNDS AS PARP INHIBITORS AND THE USE THEREOF” (IMPACT THERAPEUTICS (SHANGHAI), INC., priority 2021, published 2024).

Tested on: MDA-MB-436 cells
Assay: Inhibition of proliferation of human breast cancer MDA-MB-436 cell line (CCK-8, 7 days)
Type: cell-based
Conditions: Homo sapiens, 168 h, proliferation of MDA-MB-436, 7 days
Experimental: The cells were cultured in complete medium (DMEM medium +10% FBS+Insulin+glutathione). When the confluence reached about 80%, cells were digested and gently dispensed from the bottom of the dish with a 1 mL pipette. Cell suspension was collected and centrifuged at 500 rpm for 3 min. The supernatant was discarded, and the cell pellet were re-suspended in complete medium. The cells were seeded into a culture dish at an appropriate proportion, and then cultured in a 5% CO2 incubator at 37° C. The assay was carried out when the cells were in optimum condition and the confluence was reached 80%. Cells were harvested in the logarithmic growth phase by using 1 mL pipette gently and then centrifugated at 500 rpm for 3 min. The cells were resuspended by using refresh medium after removing the supernatant and then the cells were counted. The cells were seeded at 3000/well in a 96 well plate and incubated at 37° C. 5% CO2 incubator overnight. In the second day, cells were treated with compound at 8 serially diluted dose with 1000×final concentration in 100% DMSO. The compound was prepared as below: 1000×dilution tested compound solution to 40×test compound solution by adding 5μL, 1000×compound solution to 120 μL Medium (25-fold dilution). The solution was mixed by oscillation. DMSO was used as the control.
The medium was removed from the wells in the plate after the plate was taken out from incubator. Then, fresh medium of 195 μL/per well was added to the 96 well plate. 5μL/per well of 40×test compound solution was added into the 96 well plate. Finally, the plate was incubated for 7 days in a 37° C. 5% CO2 incubator. The medium containing compound was changed once on the fourth day. After 7 days, 20 μL of CCK-8 was added to each well and shake gently, then was cultured for 4 hours. The plate was shaken for 5 min after incubation, the absorbance values of 450 nm. and 650nm wavelengths were recorded respectively (OD=absorbance value of 450 nm−absorbance value of 650 nm) by using the multifunction readout instrument.
Data were analyzed by software GraphPad Prism 6.0. The inhibitory activity of compounds on cell proliferation was plotted using cell survival rate against the compound concentration as coordinates. Cell survival rate %=(ODcompound−ODbackground)/(ODDMSO−ODbackground)×100. The IC50 value was fitted by the s-shaped dose response curve equation: Y=100/(1+10^(log C−log IC50)), and C was the compound concentration.
Table 2 summarizes the inhibitory effect data (IC50) of the compounds on the proliferation of human breast cancer cells MDA-MB-436, wherein ++++ indicates 1<IC50≤10 nM; +++ indicates 10 nM<IC50≤100 nM; ++ indicates 100 nM<IC50≤1 μM; + indicates IC50>1 μM.

CCN1Cc2ccc(CN3CCN(c4ccc(C(=O)NC5CC5)nc4C)CC3)cc2NC1=O [Example 137, N-cyclopropyl-5-(4-((3-ethyl-2-oxo-1,2,3,4-tetrahydroquinazolin-7-yl)methyl)piperazin-1-yl)-6-methylpicolinamide]
IC50: 10 to 100 nM

CCn1c(=O)[nH]c2cc(CN3CCN(c4ccc(C(=O)NC)cc4)CC3)ccc2c1=O [Example 68, 4-(4-((3-ethyl-2,4-dioxo-1,2,3,4-tetrahydroquinazolin-7-yl)methyl)piperazin-1-yl)-N-methylbenzamide]
IC50: > 1000 nM

CCn1c(=O)[nH]c2cc(CN3CCN(c4ccc(C(=O)NC)nc4C(F)F)CC3)ccc2c1=O [Example 35, 5-(4-((3-ethyl-2,4-dioxo-1,2,3,4-tetrahydroquinazolin-7-yl)methyl)piperazin-1-yl)-6-(difluoromethyl)-N-methylpicolinamide]
IC50: 100 to 1000 nM

CCn1c(=O)[nH]c2cc(CN3CCN(c4ccc(C(=O)NC)nc4)CC3)ncc2c1=O [Example 5, 5-(4-((3-ethyl-2,4-dioxo-1,2,3,4-tetrahydropyrido[4,3-d]pyrimidin-7-yl)methyl)piperazin-1-yl)-N-methylpicolinamide]
IC50: > 1000 nM

CCn1c(=O)[nH]c2cc(CN3CCN(c4ccc(C(=O)NC)nc4Br)CC3)ccc2c1=O [Example 94, 6-bromo-5-(4-((3-ethyl-2,4-dioxo-1,2,3,4-tetrahydroquinazolin-7-yl)methyl)piperazin-1-yl)-N-methylpicolinamide]
IC50: 10 to 100 nM

CNC(=O)c1ccc(N2CCN(Cc3cc(F)c4c(=O)n(C)c(=O)[nH]c4c3)CC2)c(C)n1 [Example 105, 5-(4-((5-fluoro-3-methyl-2,4-dioxo-1,2,3,4-tetrahydroquinazolin-7-yl)methyl)piperazin-1-yl)-N,6-dimethylpicolinamide]
IC50: 100 to 1000 nM

CCn1c(=O)[nH]c2cc(CN3CCN(c4ccc(C(=O)NC)nc4C(C)C)CC3)ccc2c1=O [Example 80, 5-(4-((3-ethyl-2,4-dioxo-1,2,3,4-tetrahydroquinazolin-7-yl)methyl)piperazin-1-yl)-6-isopropyl-N-methylpicolinamide]
IC50: > 1000 nM

CCn1c(=O)[nH]c2cc(-c3cccc(C(=O)Nc4ccc(C(=O)NC)nc4)c3)cnc2c1=O [Example 45, 5-(3-(3-ethyl-2,4-dioxo-1,2,3,4-tetrahydropyrido[3,2-d]pyrimidin-7-yl)benzamido)-1-methylpicolinamide]
IC50: > 1000 nM

CCn1c(=O)[nH]c2cc(CN3CCN(c4ccc(C(=O)NC)nc4OC)CC3)cnc2c1=O [Example 109, 5-(4-((3-ethyl-2,4-dioxo-1,2,3,4-tetrahydropyrido[3,2-d]pyrimidin-7-yl)methyl)piperazin-1-yl)-6-methoxy-N-methylpicolinamide]
IC50: 100 to 1000 nM

CCn1c(=O)[nH]c2cc(-c3cccc(C(=O)Nc4ccc(C(=O)NC)nc4)n3)ccc2c1=O [Example 46, 6-(3-ethyl-2,4-dioxo-1,2,3,4-tetrahydroquinazolin-7-yl) -N-(6-(methylcarbamoyl)pyridin-3-yl)picolinamide]
IC50: 100 to 1000 nM

CCNC(=O)c1ccc(N2CCN(Cc3ccc4c(=O)n(CC)c(=O)[nH]c4c3)CC2)c(Br)n1 [Example 95, 6-bromo-N-ethyl-5-(4-((3-ethyl-2,4-dioxo-1,2,3,4-tetrahydroquinazolin-7-yl)methyl)piperazin-1-yl)picolinamide]
IC50: 10 to 100 nM

CCN1Cc2ccc(CN3CCN(c4ccc(C(=O)NC5CC5)nc4Cl)CC3)cc2NC1=O [Example 132, 6-chloro-N-cyclopropyl-5-(4-((3-ethyl-2-oxo-1,2,3,4-tetrahydroquinazolin-7-yl)methyl)piperazin-1-yl)picolinamide]
IC50: 1 to 10 nM

CCn1c(=O)[nH]c2cc(CN3CCC(c4ccc(C(=O)NC)nc4C)CC3)ccc2c1=O [Example 58, 5-(1-((3-ethyl-2,4-dioxo-1,2,3,4-tetrahydroquinazolin-7-yl)methyl)piperidin-4-yl)-N,6-dimethylpicolinamide]
IC50: > 1000 nM

CCn1c(=O)[nH]c2cc(CN3CCN(c4ccc(C(=O)NC)nc4C)CC3)c(Cl)cc2c1=O [Example 53, 5-(4-((6-chloro-3-ethyl-2,4-dioxo-1,2,3,4-tetrahydroquinazolin-7-yl)methyl)piperazin-1-yl)-N,6-dimethylpicolinamide]
IC50: > 1000 nM

CCn1c(=O)[nH]c2cc(CN3CCN(c4ccc(C(=O)NC)cc4Cl)CC3)ccc2c1=O [Example 70, 3-chloro-4-(4-((3-ethyl-2,4-dioxo-1,2,3,4-tetrahydroquinazolin-7-yl)methyl)piperazin-1-yl)-N-methylbenzamide]
IC50: > 1000 nM

CCNC(=O)c1ccc(N2CCN(Cc3cc(F)c4c(=O)n(CC)c(=O)[nH]c4c3)CC2)c(C)n1 [Example 82, N-ethyl-5-(4-((3ethyl-5-fluoro-2,4-dioxo-1,2,3,4-tetrahydroquinazolin-7-yl)methyl)piperazin-1-yl)-6-methylpicolinamide]
IC50: 10 to 100 nM

CCn1c(=O)[nH]c2cc(CN3CCN(c4cnc(C(=O)NC)c(C)c4)CC3)ccc2c1=O [Example 51, 5-(4-((3-ethyl-2,4-dioxo-1,2,3,4-tetrahydroquinazolin-7-yl)methyl)piperazin-1-yl)-N,3-dimethylpicolinamide]
IC50: > 1000 nM

CCn1c(=O)[nH]c2cc(CN3CCN(c4ccc(C(=O)NC)nc4Cl)CC3)c(C)cc2c1=O [Example 66, 6-chloro-5-(4-((3-ethyl-6-methyl-2,4-dioxo-1,2,3,4-tetrahydroquinazolin-7-yl)methyl)piperazin-1-yl)-N-methylpicolinamide]
IC50: 100 to 1000 nM

CCn1c(=O)[nH]c2cc(CN3CCN(c4ccc(C(=O)NC)nc4F)CC3)cc(Cl)c2c1=O [Example 136, 5-(4-((5-chloro-3ethyl-2,4-dioxo-1,2,3,4-tetrahydroquinazolin-7-yl)methyl)piperazin-1-yl)-6-fluoro-N-methylpicolinamide]
IC50: 1 to 10 nM

CCn1c(=O)[nH]c2cc(CN3CCN(c4c(C)cc(C(=O)NC)nc4C)CC3)ccc2c1=O [Example 72, 5-(4-((3-ethyl-2,4-dioxo-1,2,3,4-tetrahydroquinazolin-7-yl)methyl)piperazin-1-yl)-N,4,6-trimethylpicolinamide]
IC50: > 1000 nM

CCn1c(=O)[nH]c2cc(CN3CCN(c4ccc(C(=O)NC)cc4C)CC3)ccc2c1=O [Example 71, 4-(4-((3-ethyl-2,4-dioxo-1,2,3,4-tetrahydroquinazolin-7-yl)methyl)piperazin- -yl)-N,3-dimethylbenzamide]
IC50: > 1000 nM

CCn1c(=O)[nH]c2cc(CN3CCN(c4ccn5c(=O)ccnc5c4)CC3)ccc2c1=O [Example 38, 3-ethyl-7-((4-(4-oxo-4H-pyrido[1,2-a]pyrimidin-8-yl)piperazin-1-yl)methyl)quinazoline-2,4(1H,3H)-dione]
IC50: > 1000 nM

CNC(=O)c1ccc(N2CCN(Cc3ccc4c(=O)n(C)c(=O)[nH]c4c3)CC2)c(C)n1 [Example 99, N,6-dimethyl-5-(4-((3-methyl-2,4-dioxo-1,2,3,4-tetrahydroquinazolin-7-yl)methyl)piperazin-1-yl)picolinamide]
IC50: 10 to 100 nM

CCNC(=O)c1ccc(N2CCN(Cc3ccc4c(c3)NC(=O)N(CC)C4)CC2)c(Cl)n1 [Example 118, 5-(4-((3-ethyl-2-oxo-1,2,3,4-tetrahydroquinazolin-7 yl)methyl)piperazin-1-yl)-6-chloro-N-ethylpicolinamide]
IC50: 10 to 100 nM

CCn1c(=O)[nH]c2cc(CN3CCN(c4ccc(C(=O)NC)nc4Cl)CC3)c(Cl)cc2c1=O [Example 65, 6-chloro-5-(4-((6-chloro-3-ethyl-2,4-dioxo-1,2,3,4-tetrahydroquinazolin-7-yl)methyl)piperazin-1-yl)-N-methylpicolinamide]
IC50: 100 to 1000 nM

CCn1c(=O)[nH]c2cc(CN3CCN(c4ccc(C(=O)NC)cc4F)CC3)ccc2c1=O [Example 69, 4-(4-((3-ethyl-2,4-dioxo-1,2,3,4-tetrahydroquinazolin-7-yl)methyl)piperazin-1-yl)-3-fluoro-N-methyibenzamide]
IC50: > 1000 nM

CCN1Cc2ncc(CN3CCN(c4ccc(C(=O)NC)nc4)CC3)cc2NC1=O [Example 144, 5-(4-((3-ethyl-2-oxo-1,2,3,4-tetrahydropyrido[3,2-d]pyrimidin-7-yl)methyl)piperazin-1-yl)-N-methylpicolinamide]
IC50: 10 to 100 nM

CCN1Cc2c(F)cc(CN3CCN(c4ccc(C(=O)NC)nc4F)CC3)cc2NC1=O [Example 134, 5-(4-((3-ethyl-5-fluoro-2-oxo-1,2,3,4-tetrahydroquinazolin-7-yl)methyl)piperazin-1-yl)-6-fluoro-N-methylpicolinamide]
IC50: 10 to 100 nM
